One assay relates to CT-DNA. The assay can be described thus: DNA cleavage by agarose gel electrophoresis in presence of H2O2. The conditions noted are these: in the presence of H2O2, agarose gel. Format: biochemical, calf. An excerpt:
The DNA nuclease characteristics were scrutinized of all substances along with DNA containing H2O2 and Tris-HCl buffer solution with a pH of 7.4 [19]. The gel layer was discarded from the tank solution after the experiment was finished and put in front of a UV transilluminator, and each band lane was also scrutinized with the control (DNA + H2O2).
2.1. Resources and Techniques
We purchased the essential chemical substances and other reagents from Sigma Aldrich repository. Numerous analytical and spectral measurements were utilized to describe all the test compounds, including Bruker 300 MHz 1H NMR spectrometer, or Avance III HD Nanobay 400 MHz, Shimadzu FT-IR spectrometer, Shimadzu UV-Vis 1800, Varian E112 EPR spectrometer, Bruker Daltonics ESI-MS 3000 or Bruker Compact qTOFMS coupled to an LC system and (Varian Inc, USA, 410 proStar binary LC with 500 MS, IT, and PDA detectors, or Thermo Ultimate 3000 with PDA), Bruker AXS KAPPA APEX-2 or D8 ADVANCE diffractometers (SCXRD) and other analytical techniques. The further details were encapsulated in our previous reports.
2.2. DNA/BSA interaction studies
2.2.1. […]
After the completion of the experiment, the gel layer was taken out of the tank solution and exposed to a UV transilluminator. All band lanes were evaluated and compared to the control (DNA+H2O2) using bromophenol blue, […] is useful for visually analyzing the migrated band lanes for the degree of DNA cleavage. […]
By increasing the concentration of DNA (0 –50 μM), electronic absorption titrations were performed at the fixed concentration (50 μM) of all test compounds in aqueous media at room temperature. […] Using the molar extinction coefficient (6600 M −1 cm−1) at 260 nm, it was also possible to measure the DNA concentration per nucleotide and polynucleotide, denoting that the DNA was sufficiently free of protein by the ratio of absorbance at 260 and 280 nm of roughly 1.8 –1.9 [21, 22]. When raising the concentration of DNA in compound solution, up to the point of completely binding, the decrease in absorbance intensity was carefully observed.

Assay [1] can be described thus: Hydroxyl radical scavenging assay. The class given is biochemical. The conditions noted are these: 230 nm.
Assay [2] relates to Salmonella enteric serovar typhi. The assay can be described thus: Agar disc diffusion antibacterial test. Format: cell-based. Particulars: B; for Inhibition %: (T–C)/T × 100.
Setting [3] is: 20 µL of 100 µM on 6 mm disc, Control (DMSO) = 6 mm.

Each structure is given as a SMILES string.

One may read the IC50 as the midpoint of a concentration-inhibition curve. Consider `[Cu+2].[O-]c1ccccc1N=Cc1ccc(N2CCOCC2)cc1.[O-]c1ccccc1N=Cc1ccc(N2CCOCC2)cc1.c1cnc2c(c1)ccc1cccnc12` [(1b), [Cu^II(L)2(phen)]], for which the “DNA cleavage (chemical nuclease activity)” value (from here on “DNA cleavage”) in the assay with CT-DNA is given as “complete DNA cleavage”. Further, the “% Inhibition, hydroxyl radical” value is 09.94% in assay [1] (40 µM); 18.86% in assay [1] (80 µM); 32.85% in assay [1] (120 µM); 39.84% in assay [1] (160 µM); 51.93% in assay [1] (200 µM); 62.05% in assay [1] (240 µM). In addition, the IC50 in assay [1] (read-out: IC50, hydroxyl radical inhibition) was 200 µM. In addition, the “diameter of clear zone inhibition” value in assay [2] (setting [3]) worked out at 10 mm. The molecule also showed an Inhibition % in assay [2] of 40%.
In the case of `[O-]c1ccccc1N=Cc1ccc(N2CCOCC2)cc1.[O-]c1ccccc1N=Cc1ccc(N2CCOCC2)cc1.[Zn+2].c1cnc2c(c1)ccc1cccnc12` [(2b), [Zn^II(L)2(phen)]], the “DNA cleavage” value in the assay on CT-DNA is “partially cleaves DNA”. Further, the “% Inhibition, hydroxyl radical” value in assay [1] (40 µM) is recorded as 08.33%; in assay [1] (80 µM), 17.12%; in assay [1] (120 µM), 27.05%; in assay [1] (160 µM) it was 36.68%; in assay [1] (200 µM) it was 47.03%; in assay [1] (240 µM), 57.83%. Besides, the “diameter of clear zone inhibition” value in assay [2] (setting [3]) is listed as 10 mm. For the same molecule, the Inhibition % in assay [2] is recorded as 40%.
As a reminder, the zone of inhibition is the size of the clear area around the sample on an inoculated plate. As for `Oc1ccccc1N=Cc1ccc(N2CCOCC2)cc1` [(HL), 2-(4-morpholinobenzylideneamino)phenol], the “DNA cleavage” value in the assay with CT-DNA is “No discernible DNA cleavage”. Moreover, the “% Inhibition, hydroxyl radical” value in assay [1] (40 µM) was 07.26%; in assay [1] (80 µM), 14.43%; in assay [1] (120 µM), 25.52%; in assay [1] (160 µM) it was 33.86%; in assay [1] (200 µM) it was 40.73%; in assay [1] (240 µM) it was 50.68%. Further, the zone of inhibition at 100 µM in assay [2] (20 µL of 100 µM on 6 mm disc, Control (DMSO) = 6 mm, read-out: diameter of clear zone inhibition) is 9 mm. In addition, in assay [2], the Inhibition % came out at 33%.

Values taken from paper PMC9775322, “An Integrated Analysis of Mechanistic Insights into Biomolecular Interactions and Molecular Dynamics of Bio-Inspired Cu(II) and Zn(II) Complexes towards DNA/BSA/SARS-CoV-2 3CL^pro by Molecular Docking-Based Virtual Screening and FRET Detection” (Biomolecules, 2022).
